Test results from patent US10300143B2, “Compositions for treating cancer and methods for making the same” (THE BRIGHAM AND WOMEN'S HOSPITAL, INC., priority 2012, dated 2019).

How the values were obtained:
Test in all cases: Cell viability (MTS) assay
Format in all cases: cell-based
[1] = tested on: PI3K-overexpressing 4306 ovarian cancer cell line
Method: (§1) 4T1 and MDA MB 468 breast cancer cells were cultured in RPMI, 4306 ovarian cancer cells were cultured in DMEM, supplemented with 10% FBS and 1% of Antibiotic-Antimycotic 100× solution. 4×10^3 Cells were seeded into 96-well flat-bottomed plates. Free drug or drug loaded nanoparticles (normalized to equivalent amounts of free drug) were added in triplicate in each 96-well plate and then plates were incubated in 5% CO^2 atmosphere at 37° C. After desired time period of incubation, cells were washed and incubated with 100 μL phenol-red free medium (without FBS) containing 20 μl of the CellTiter 96 Aqueous One Solution reagents (PROMEGA, WI). After 2 hours incubation, the absorbance in each well was recorded.
(§2) 4T1 and MDA MB 468 breast cancer cells were cultured in RPMI, 4306 ovarian cancer cells were cultured in DMEM, supplemented with 10% FBS and 1% of Antibiotic-Antimycotic 100× solution (Invitrogen, 15240-062). 4×10^3 Cells were seeded into 96-well flat-bottomed plates. Free drug or drug loaded nanoparticles (normalized to equivalent amounts of free drug) was added in triplicate in each 96-well plate at appropriate concentrations (1, 10, 100 nM and 1, 10, and […]) and then plates were incubated in 5% CO2 atmosphere at 37° C. After desired time period of incubation, cells were washed and incubated with […] phenol-red free medium (without FBS) containing […] of the CellTiter 96 Aqueous One Solution reagents (Promega, WI). After 2 hours incubation in a 5% CO2 atmosphere at 37° C., the absorbance in each well was recorded at 490 nm using an Epoch plate reader (Biotek instruments, VT). The absorbance reflects the number of surviving cells. Blanks were subtracted from all data and results analyzed using GraphPad Prism™ software (GraphPad, San Diego, Calif.). Each experiment was independently repeated thrice and data shown is mean±SE of n=3.

[2] = tested on: MDA-MB-468 human breast cancer cell line
Method: as §1, §2

[3] = tested on: 4T1 murine breast cancer cell line; details: Mus musculus
Method: as §1, §2

In the case of `Oc1cccc(-c2nc(N3CCOCC3)c3oc4ncccc4c3n2)c1` [PI103], the IC50 ([1]; 48 hours) is reported as 286 ± 45 nM, the IC50 ([1]; 72 hours) is reported as 392 ± 49.3 nM and the IC50 ([2]; 48 hours) is reported as 445 ± 67 nM. For the same compound, the IC50 ([2]; 72 hours) was 312 ± 49 nM, the IC50 ([3]; 48 hours) was 122 ± 3.15 nM and the IC50 ([3]; 72 hours) was 67.3 ± 3.4 nM.
